Assay results reported in US10774121B2, “Methods and compositions for treating neurodegenerative disorders and Alzheimer's Disease and improving normal memory” (The Regents of the University of California, priority 2006, dated 2020).
“Also recorded” adds a separate entry of the source.

Columns and labels:
[1] = system: Aβ production; assay: ELISA of Aβ produced in β-APP-only:PS-1-only co-culture extracts; assay type: cell-based, mouse; settings: synthetic peptides 0-3 μM added at the time of the co-culture
Method: Co-cultures of β-APP-only and PS-1-only cells were carried out in the presence and absence of Peptide 1-80 (0-3 μM). ^35S-GTPγS assays were carried out on extracts as a measure of G-protein activation. The Aβ produced in these co-culture extracts was determined by ELISA.
ES-derived mouse cells (PS-1^−/−; PS-2^−/−) that expressed only small amounts of endogenous β-APP but no PS, were transiently transfected with cDNA for human β-APP to produce cells expressing excess human β-APP over mouse β-APP, and no PS-1 or PS-2 (β-APP-only cells). Embryonic (E18) mouse primary fibroblasts derived from β-APP-null mice, expressing only small amounts of endogenous PS-1 and PS-2, were transfected with cDNAs for human PS-1 to produce cells expressing excess human over mouse PS-1 but no β-APP (PS-1-only cells). The minigenes were co-transfected with PS-1 in the PS-only APP−/− fibroblasts to inhibit the endogenous mouse Gα under investigation in those cells. PS−/− ES cells were separately transfected with human β-APP cDNA (β-APP only cells) and the two types of cells were co-cultured for 24 hours. Cells were harvested and detergent-buffer extracts of the co-cultures were prepared. Determination of [^35S]GTPγS incorporation in these cultures was carried out in the presence and absence of each minigene: Aliquots each containing 100 μg total protein were reacted with ^35S-GTPγS and immunoprecipitation of each ^35S-GTPγS-treated extract was carried out with antibodies directed to the particular Gα under investigation. Specificity of binding of a particular Gα to PS-1 was established by blocking of GTPγS incorporation in the presence of the specific minigene inhibitor.
Co-culture of β-APP-only with PS-1-only cells was carried out as described above.
ELISA for the production of Aβ1-40 was carried out using sandwich ELISA kits (Biosource).

[2] = target: T1, Gαo (Rattus norvegicus, UniProt P59215); assay: Stimulation of 35S-GTPγS binding to Go by PS-1 cytoplasmic peptides in rat hippocampal membrane preparations; assay type: biochemical; settings: peptides 200 μM; for stimulation of 35S-GTPγS binding to Go: rat hippocampal membranes
T1 construct: tissue Applied Cell Science, Rockville, Md; host or cells: rat hippocampal membranes, solubilized in CHAPS buffer
Source text: To provide evidence that the GoA binding observed in FIG. 5A was directly to PS-1, and not to a co-immunoprecipitated, PS-associated protein the autonomous activation of Go by synthetic peptide fragments corresponding to cytoplasmic loops 1, 2, 3 and the carboxyl tail of PS-1 (in the 7-TM PS model) were investigated (see FIGS. 20B and C and Table 1). The peptides were individually tested for their ability to stimulate ^35S-GTPγS binding to Go in rat hippocampal membrane preparations.
(§1) The autonomous activation of G-proteins Gαo, Gαq and Gαs by oligopeptides corresponding to cytoplasmic loops 1, 2, 3 and the COOH tail of human PS-1 in the 7-TM PS model were examined. The peptides were individually tested for their ability to stimulate ^35S-GTPγS binding to each G-protein in rat hippocampal membrane preparations.
(§2) Rat hippocampal membranes (Applied Cell Science, Rockville, Md.) were solubilized in CHAPs buffer.
(§3) Peptides (200 μM) were incubated without pre-treatment with solubilized rat hippocampal membranes (50 μg) in the ^35S reaction mixture. Accumulation of γ-S GTP the ^35S-GTPγS was determined after immunoprecipitation with the specific anti-G Ab.

[3] = target: T2, Gαq (Rattus norvegicus, UniProt P82471); assay: Stimulation of 35S-GTPγS binding to Gq by PS-1 cytoplasmic peptides in rat hippocampal membrane preparations; assay type: biochemical; settings: peptides 200 μM, rat hippocampal membranes
T2 sequence (P82471 1-359): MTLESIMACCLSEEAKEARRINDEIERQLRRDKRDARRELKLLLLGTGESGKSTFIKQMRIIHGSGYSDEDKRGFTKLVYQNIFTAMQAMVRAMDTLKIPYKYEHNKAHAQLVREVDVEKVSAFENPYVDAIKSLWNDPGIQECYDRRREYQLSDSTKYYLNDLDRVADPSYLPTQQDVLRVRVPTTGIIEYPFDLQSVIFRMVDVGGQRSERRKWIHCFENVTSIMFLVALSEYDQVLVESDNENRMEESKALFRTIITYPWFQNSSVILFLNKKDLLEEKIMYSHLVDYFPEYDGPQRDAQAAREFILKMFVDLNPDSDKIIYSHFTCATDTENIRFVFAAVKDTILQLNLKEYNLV
Method: as §1, §2, §3

[4] = target: T3, Gαs (Rattus norvegicus, UniProt P63095); assay: Stimulation of 35S-GTPγS binding to Gs by PS-1 cytoplasmic peptides in rat hippocampal membrane preparations; assay type: biochemical; settings: peptides 200 μM, rat hippocampal membranes
T3 construct: tissue Applied Cell Science, Rockville, Md; host or cells: rat hippocampal membranes, solubilized in CHAPS buffer
Method: as §1, §2, §3

[5] = system: protein tyrosine kinase activity; assay: Protein tyrosine kinase ELISA on extracts of β-APP-transfected ES double-null cells mixed with PS-1-transfected DAMI cells; assay type: cell-based; settings: 25 μg protein added, 0-20 min after mixing
Method: DAMI:ES cells: Equal numbers (0.5×10^6/ml) of β-APP 695 (Selkoe and Podlisny, 2002)-transfected ES double-null cells and PS-1 transfected DAMI cells were co-cultured at 37° C. for various times between 0-20 mins.
At several times between 0 and 20 min after mixing, an aliquot of each cell mixture was rapidly centrifuged, the culture medium was removed, and the cell pellet was suspended in 200 μl of extraction buffer (50 mM Tris, pH 8.0/150 mM NaCl/0.5% Nonidet-P40) containing protease inhibitors (1 mM 4-(2-aminoethyl) benzene sulfonyl fluoride hydrochloride (AEBSF)/1 μg/ml antipain/0.1 μg/ml pepstatin A/0.1 μg/ml leupeptin) and the phosphatase inhibitor sodium orthovanadate (0.1 mM). The mixture was sonicated with three bursts of 20 sec duration and then centrifuged. These extract supernatants were then used for Western blot and ELISA analyses as described below.
ELISAs Protein tyrosine kinase activity was measured by an Enzyme Linked Immunosorbent Assay (ELISA) using a tyrosine kinase assay kit (Upstate Biotechnology). A biotinylated substrate peptide containing tandem repeats of Poly (Glu4-Tyr) was incubated with supernatants of extracts of transfected cells mixed for different times ([…]) in the presence of non-radioactive ATP and a Mn^2+/Mg^2+ co-factor cocktail according to the manufacturer's protocols. A phosphotyrosine specific mouse monoclonal antibody (4G10) conjugated to horseradish peroxidase was used to detect the phosphorylated substrate by ELISA.
ES double-null cells transfected with β-APP were mixed with DAMI cells transfected with PS-1, and were co-cultured for various times between 0-20 min, using cell densities that ensured cell-cell contact. ELISA assays were then carried out on cell extracts to measure protein tyrosine kinase activity. […]

[6] = system: Gαo; assay: 35S-GTPγS incorporation after addition of β-APPs to cell cultures, immunoprecipitation with Gαo antibodies; assay type: cell-based, mouse
Method: In addition, water-soluble β-APP ectodomain itself (B-APPs), when added to cultures of PS-1-only cells, could also activate G-proteins in a dose-dependent manner. β-APPs was partially purified from conditioned media of baculovirus cultures over-expressing human β-APP. The final product (FIG. 18b, lane 1) had, in addition to β-APP, three major contaminating bands at 81 kDa, 55 kDa and 31 kDa that co-purified with the β-APP ectodomain. This partially purified β-APPs preparation was added in increasing amounts to PS-1-only APP^−/− fibroblasts. After 15 mins the cells from each well were harvested in extraction buffer, and detergent extracts (each containing 100 μg protein) were treated with ^35S-GTPγS. Activation of Gαo was assayed after immunoprecipitation of the activated ^35S-GTPγS-Gαo with the Gαo-specific antibodies. […] Furthermore, when partially purified β-APPs was added to untransfected ES (PS^−/−) cells, no increase in G-protein activation was observed by ^35S-GTPγS assays (FIG. 18A, curve 5), further implicating PS as a receptor for the β-APP ligand in the Gαo activation.
To confirm that it was indeed the β-APPs in the partially purified β-APPs preparation that was the ligand responsible for G-protein activation, and not one of the contaminants, β-APPs was removed from the preparation by treatment with MAb 348 to β-APP (see FIG. 18C, lane 2). This β-APPs-depleted solution at the same concentrations used for the non-depleted preparation, was added to the PS-1-only cells, which were then treated exactly as described above. […] In contrast, the β-APPs preparation similarly treated with an irrelevant IgG when added to PS-1-only cells, gave results that resembled those obtained with the untreated samples (FIG. 18A, curve 2).
(§4) ^35S-GTPγS Assays: Extract (100 μg of total protein) was mixed with an equal volume of GTPγS Buffer B (50 mM HEPES/NaOH pH 7.4, 40 μM GDP, 50 mM MgCl2, 100 mM NaCl) and reacted with 50 nM ^35S-GTPγS (1250 Ci/mmol, Perkin Elmer, Waltham, Mass.) for 60 min at RT. The reaction was stopped with 10× Stopping buffer (100 mM Tris-HCl, pH 8, 25 mM MgCl2, 100 mM NaCl, 20 mM GTP) followed by immunoprecipitation of the ^35S-GTPγS-Gαo complex with Ab against a particular Gα. The Ab-protein complex was absorbed to Protein A/G agarose for 90 min at RT and washed. The agarose beads were suspended in scintillation fluid (CytoScint, ICN) (5 ml) and counted in a Beckman Coulter LS 6000 SC scintillation counter for 3 min.

[7] = system: G-protein Go; assay: 35S-GTPγS incorporation after addition of β-APPs to solubilized rat hippocampal membranes; assay type: biochemical
Method: Because the results so far described were obtained using only cultured cells transfected with human PS, binding of the endogenous rat PS proteins with rat Gαo present in rat hippocampal membranes was examined. […]
as §4, §2

T3 sequence (P63095 whole entry): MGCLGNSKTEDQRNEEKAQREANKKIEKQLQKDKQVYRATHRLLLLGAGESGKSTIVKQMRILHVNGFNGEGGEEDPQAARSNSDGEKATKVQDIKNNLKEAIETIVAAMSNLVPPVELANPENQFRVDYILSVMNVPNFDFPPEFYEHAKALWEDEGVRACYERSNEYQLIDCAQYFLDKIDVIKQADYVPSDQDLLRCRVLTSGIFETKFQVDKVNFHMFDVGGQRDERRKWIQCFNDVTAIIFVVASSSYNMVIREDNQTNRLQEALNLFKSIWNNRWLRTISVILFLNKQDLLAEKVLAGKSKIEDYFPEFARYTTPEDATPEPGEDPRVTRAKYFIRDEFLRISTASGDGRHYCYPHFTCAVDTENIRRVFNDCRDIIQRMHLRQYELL
T1 sequence (P59215 whole entry): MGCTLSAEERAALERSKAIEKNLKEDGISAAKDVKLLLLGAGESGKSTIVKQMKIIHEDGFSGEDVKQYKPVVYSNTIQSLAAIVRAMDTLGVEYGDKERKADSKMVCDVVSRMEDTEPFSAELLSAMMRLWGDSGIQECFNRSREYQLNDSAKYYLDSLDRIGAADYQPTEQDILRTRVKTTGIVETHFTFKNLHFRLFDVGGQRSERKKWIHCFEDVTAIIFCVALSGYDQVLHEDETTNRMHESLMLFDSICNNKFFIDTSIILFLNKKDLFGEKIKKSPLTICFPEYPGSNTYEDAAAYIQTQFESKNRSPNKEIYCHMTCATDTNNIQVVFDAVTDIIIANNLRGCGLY

DEEEDEEL [Peptide 8, 8-mer of the PS-1 N-terminal domain]
cell-cell interaction and Aβ production, ELISA [1]: inhibits

VFKTYNVAVD [ic2, PS-1 cytoplasmic loop 2 peptide]
stimulation of 35S-GTPγS binding to Go [2]: only background stimulation
stimulation of 35S-GTPγS binding to Gq [3]: only background stimulation
stimulation of 35S-GTPγS binding to Gs [4]: only background stimulation

N-terminal domain of PS-1 fused to FLAG: fusion protein with FLAG attached at the N-terminus of the PS-1 N-terminal domain, grown in DH5α bacteria
transient increase in protein tyrosine kinase activity after cell mixing [5]: specifically inhibited; also recorded: none of the increases
transient increase in protein tyrosine kinase activity after cell mixing ([5]; listed as FLAG reporter fused to the N-terminal domain of PS-1): no increase

KYLPE [ic3, PS-1 cytoplasmic loop 3 peptide]
stimulation of 35S-GTPγS binding to Go [2]: robust stimulation
increase in activation of 35S-GTPγS binding over samples without peptide ([2]; rat membranes): 200%
stimulation of 35S-GTPγS binding to Gq [3]: robust stimulation
stimulation of 35S-GTPγS binding to Gs [4]: only background stimulation

TDYLVQPFMDQLAFHQFYI [C(21-39), remaining 19 amino acids of the PS-1 cytoplasmic C-terminal tail]
stimulation of 35S-GTPγS binding to Go ([2]; listed as COOH-terminal peptide corresponding to residues 21-39): failed to activate; also recorded: no detectable Go activation
stimulation of 35S-GTPγS binding to Gq [3]: robust stimulation
stimulation of 35S-GTPγS binding to Gs [4]: induced stimulation

DEEEDEELTLKYGAK [Peptide 7, 15-mer of the PS-1 N-terminal domain]
cell-cell interaction and Aβ production, ELISA [1]: inhibits

β-APPs: water-soluble β-APP ectodomain, baculovirus-derived, purified or partially purified
transient increase in protein tyrosine kinase activity after cell mixing [5]: specifically inhibited; also recorded: no increase; also recorded: none of the increases
35S-GTPγS incorporation ([6]; PS-1-only APP-/- fibroblast cultures, increasing β-APPs, 15 mins): increased ^35S-GTPgS incorporation in a dose-dependent manner
maximum increase in incorporation of 35S-GTPγS ([6]; PS-1-only APP-/- fibroblasts, 120 pM β-APPs): over 500%
35S-GTPγS incorporation ([6]; untransfected APP-/- fibroblasts expressing only endogenous PS): modest G-protein activation; also recorded: only modest increases
35S-GTPγS incorporation ([6]; untransfected ES (PS-/-) cells): no increase; also recorded: no significant increases
35S-GTPγS incorporation ([7]; PS-depleted rat membranes (pre-treated with polyclonal Ab to PS-1 and PS-2)): did not occur; also recorded: no increase
incorporation of 35S-GTPγS greater than untreated samples ([7]; rat hippocampal membranes, 80 pM β-APPs): 100%
increase in G-protein Go activation ([7]; rat hippocampal membranes, 400 pM β-APPs): greater than 600%
35S-GTPγS incorporation ([7]; solubilized rat hippocampal membranes (100 μg), 0-400 pM β-APPs, 15 min): increased ^35S-GTPgS incorporation in a dose-dependent manner

RRSLGHPEPLSNGRP [Peptide 4, 15-mer of the PS-1 N-terminal domain]
cell-cell interaction and Aβ production, ELISA [1]: inhibits

PFTEDTETVGQRALHS [ic1(17-32), PS-1 cytoplasmic loop 1 peptide]
stimulation of 35S-GTPγS binding to Gs [4]: induced stimulation

KSVSFYTRKDGQLIYT [ic1(1-16), PS-1 cytoplasmic loop 1 peptide]
stimulation of 35S-GTPγS binding to Gs [4]: not
